In patent US20220347175A1, “PYRIDAZINONE DERIVATIVE” (Sumitomo Dainippon Pharma Co., Ltd., priority 2018, published 2022):

Experiments:
[1] = molecular target: T1, human Nav1.5 (Homo sapiens, UniProt Q14524); test: Amplification of Nav1.5-derived voltage-dependent sodium current (Nav1.5 current), cell line stably expressing human Nav1.5, automated patch clamp; assay type: cell-based
T1 construct: expressed in transfected cells; host or cells: CHO-K1 (T-REx System, ThermoFisher Scientific)
Procedure: Test 2: Evaluation of the Amplification in Nav1.5-Derived Voltage-Dependent Sodium Current (Nav1.5 Current) by Using a Cell Line Stably Expressing Human Nav1.5
A CHO-K1 cell line (Chinese hamster ovary) stably expressing human Nav1.5 (Gene Bank Accession No: P000326.2) was obtained by using purchased T-Rex System (ThermoFisher Scientific, USA), and used for the present test. The effect of test compounds on the amplification of Nav1.5 current was evaluated by using a cell line stably expressing human Nav1.5 and HTS automated patch clamp system, similarly in the method using Nav1.1. In other words, test compounds were added in an extracellular fluid which contained 1% DMSO and 500 nmol/L Tetrodotoxin (TTX), and evaluated as a change of the peak value of Nav1.5 current and the area under the curve (AUC). The induction and the measurement of Nav1.5 current, the pharmacologic effect on Nav1.5 current, and a method for pharmacological evaluation were carried out by the same method as in Nav1.1.

[2] = molecular target: T2, human Nav1.1 (Homo sapiens, UniProt P35498); test: Amplification of Nav1.1-derived voltage-dependent sodium current (Nav1.1 current), cell line stably expressing human Nav1.1, automated patch clamp; assay type: cell-based
T2 construct: host or cells: HEK293
Summary of the method: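 Automated whole-cell voltage-clamp recordings used HEK293 cells stably expressing human Nav1.1, keeping only cells with >500 pA current, with currents evoked by ramp voltage. Compounds were applied in extracellular fluid with 1% DMSO, and amplification (%) was computed from peak current or AUC after versus before addition.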

[3] = 10 μmol/L compound, change of the area under the curve of Nav1.5 current (Test Result 1), read-out: Nav1.5 current amplification rate (%)
[4] = 10 μmol/L compound, change of the area under the curve of Nav1.1 current (Test Result 1), read-out: Nav1.1 current amplification rate (%)
[5] = 10 μmol/L compound, change of the area under the curve of Nav1.5 current (Test Result 1)
[6] = 10 μmol/L compound, change of the area under the curve of Nav1.1 current (Test Result 1)
[7] = compound 1 μmol/L, CHO-K1 stably expressing human Nav1.5
[8] = compound 1 μmol/L, HEK293 stably expressing human Nav1.1
[9] = compound 1 μmol/L, CHO-K1 stably expressing human Nav1.5, read-out: Nav1.5 current amplification rate (%)
[10] = compound 1 μmol/L, HEK293 stably expressing human Nav1.1, read-out: Nav1.1 current amplification rate (%)
[11] = compound 3 μmol/L, CHO-K1 stably expressing human Nav1.5
[12] = compound 3 μmol/L, HEK293 stably expressing human Nav1.1

T1 sequence (Q14524 1-2015 isoform Q14524-2): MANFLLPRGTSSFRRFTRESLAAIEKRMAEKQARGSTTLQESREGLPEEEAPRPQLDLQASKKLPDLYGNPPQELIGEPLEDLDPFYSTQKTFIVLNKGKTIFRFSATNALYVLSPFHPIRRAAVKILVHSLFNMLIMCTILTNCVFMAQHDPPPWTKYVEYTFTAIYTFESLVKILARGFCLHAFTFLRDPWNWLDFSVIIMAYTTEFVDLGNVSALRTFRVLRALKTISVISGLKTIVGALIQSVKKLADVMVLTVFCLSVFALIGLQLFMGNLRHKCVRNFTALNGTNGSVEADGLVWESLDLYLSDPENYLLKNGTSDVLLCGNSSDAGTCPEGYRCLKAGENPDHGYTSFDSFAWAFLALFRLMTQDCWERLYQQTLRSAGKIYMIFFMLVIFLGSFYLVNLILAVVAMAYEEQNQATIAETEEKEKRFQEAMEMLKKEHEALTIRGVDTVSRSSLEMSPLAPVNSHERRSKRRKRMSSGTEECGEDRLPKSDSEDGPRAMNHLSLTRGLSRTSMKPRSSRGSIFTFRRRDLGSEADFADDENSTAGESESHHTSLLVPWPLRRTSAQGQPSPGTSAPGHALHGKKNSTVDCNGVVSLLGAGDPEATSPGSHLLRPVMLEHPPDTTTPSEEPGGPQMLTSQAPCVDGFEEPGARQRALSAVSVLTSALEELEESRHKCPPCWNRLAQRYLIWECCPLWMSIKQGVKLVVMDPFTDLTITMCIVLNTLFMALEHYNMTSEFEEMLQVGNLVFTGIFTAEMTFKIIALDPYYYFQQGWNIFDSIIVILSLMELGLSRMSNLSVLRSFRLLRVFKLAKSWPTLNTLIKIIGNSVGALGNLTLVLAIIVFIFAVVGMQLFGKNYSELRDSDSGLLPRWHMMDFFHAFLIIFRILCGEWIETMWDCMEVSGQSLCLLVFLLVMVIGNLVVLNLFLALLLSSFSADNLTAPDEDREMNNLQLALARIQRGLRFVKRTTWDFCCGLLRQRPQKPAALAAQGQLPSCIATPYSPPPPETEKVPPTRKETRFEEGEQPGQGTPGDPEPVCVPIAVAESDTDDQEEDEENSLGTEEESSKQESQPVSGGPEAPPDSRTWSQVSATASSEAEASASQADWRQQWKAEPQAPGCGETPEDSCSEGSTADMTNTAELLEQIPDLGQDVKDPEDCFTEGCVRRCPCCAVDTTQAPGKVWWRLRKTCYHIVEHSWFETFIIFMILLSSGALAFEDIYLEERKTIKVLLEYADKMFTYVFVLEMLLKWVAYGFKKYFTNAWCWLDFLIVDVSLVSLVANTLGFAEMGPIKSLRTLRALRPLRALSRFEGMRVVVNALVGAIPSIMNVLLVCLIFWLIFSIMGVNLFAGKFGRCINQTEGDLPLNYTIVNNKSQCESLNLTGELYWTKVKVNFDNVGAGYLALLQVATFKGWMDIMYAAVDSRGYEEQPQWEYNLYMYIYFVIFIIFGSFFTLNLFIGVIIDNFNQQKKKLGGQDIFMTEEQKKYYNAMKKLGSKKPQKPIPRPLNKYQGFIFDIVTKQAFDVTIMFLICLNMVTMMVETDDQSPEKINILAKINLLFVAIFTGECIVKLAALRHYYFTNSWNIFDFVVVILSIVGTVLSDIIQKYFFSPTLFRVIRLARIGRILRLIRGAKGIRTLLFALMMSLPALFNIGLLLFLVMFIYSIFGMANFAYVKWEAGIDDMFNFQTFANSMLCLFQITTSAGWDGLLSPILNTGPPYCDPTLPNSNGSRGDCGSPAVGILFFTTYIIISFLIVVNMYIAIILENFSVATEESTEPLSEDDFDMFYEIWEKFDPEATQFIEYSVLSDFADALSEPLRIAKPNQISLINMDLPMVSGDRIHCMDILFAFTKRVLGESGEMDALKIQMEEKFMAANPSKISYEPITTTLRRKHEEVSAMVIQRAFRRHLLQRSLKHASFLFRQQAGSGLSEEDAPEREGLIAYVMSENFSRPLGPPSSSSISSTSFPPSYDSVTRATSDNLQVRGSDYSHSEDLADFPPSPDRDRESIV

With Cc1cc(N2CCC(C)CC2)nn(CC(=O)Nc2ccc3ocnc3c2)c1=O [Example 200] the activation at 10 µM [1, 3] was 5% and the activation at 10 µM [2, 4] was 103%.
With CC1CC=C(c2ccc(=O)n(CC(=O)N3CC(C)N(c4cccnc4)C(C)C3)n2)CC1 (stereo not drawn) [Example 416] the “Nav1.5 current amplification rate (%)” value [1, 5] was 86% and the “Nav1.1 current amplification rate (%)” value [2, 6] was 383%.
For CC1CCN(c2ccc(=O)n(CC(=O)N3CCc4cc(N5CCOCC5)ccc43)n2)CC1 [Example 164], the activation at 10 µM [1, 3] was 34% and the activation at 10 µM [2, 4] was 187%.
For O=C(Cn1nc(N2CCC3(CCC3)C2)ccc1=O)Nc1ccc2c(c1)OCC2 [Example 172], the activation at 10 µM [1, 3] was 4% and the activation at 10 µM [2, 4] was 117%.
In the case of CC1CC=C(c2ccc(=O)n(CC(=O)N3CCc4c(-c5cn[nH]c5)cncc43)n2)CC1 (racemic) [Example 311], the “Nav1.5 current amplification rate (%)” value [1, 7] is reported as 52% and the “Nav1.1 current amplification rate (%)” value [2, 8] is reported as 265%.
CC1CCN(c2ccc(=O)n(CC(=O)Nc3ccc4oc(N(C)C)nc4c3)n2)CC1 [Example 91] was tested, and the “Nav1.5 current amplification rate (%)” value [1, 5] was 9% and the “Nav1.1 current amplification rate (%)” value [2, 6] was 93%.
O=C(Cn1nc(N2CCCCCC2)ccc1=O)Nc1ccnc(C(F)(F)F)c1 [Example 120] showed an activation at 10 µM [1, 3] of 5% and an activation at 10 µM [2, 4] of 176%.
Cc1cc(NC(=O)Cn2nc(N3CCC4(CCCC4)C3)c(C)cc2=O)cc(C)n1 [Example 199] was tested, and the activation at 10 µM [1, 3] was 1% and the activation at 10 µM [2, 4] was 36%.
N#Cc1cncc(NC(=O)Cn2nc(C3=CCC(F)(F)CC3)ccc2=O)c1 [Example 107] was tested, and the activation at 10 µM [1, 3] was 24% and the activation at 10 µM [2, 4] was 37%.
For CC1(C)CCN(c2ccc(=O)n(CC(=O)N3CCc4c(-c5cccnc5)cccc43)n2)CC1 [Example 234], the activation at 1 µM [1, 9] was 4% and the activation at 1 µM [2, 10] was 240%.
O=C(Cn1nc(C2=CCC3(CC2)CC3(F)F)ccc1=O)N1CCN(c2cncc(C(F)(F)F)c2)CC1 (stereo not drawn) [Example 509] gave an activation at 3 µM ([1]; compound 3 μmol/L, CHO-K1 stably expressing human Nav1.5, read-out: Nav1.5 current amplification rate (%)) of 5% and an activation at 3 µM ([2]; compound 3 μmol/L, HEK293 stably expressing human Nav1.1, read-out: Nav1.1 current amplification rate (%)) of 238%.
O=C(Cn1nc(N2CCC3(CCC3)CC2)ccc1=O)Nc1ccc2ocnc2c1 [Example 126] was tested, and the activation at 10 µM [1, 3] was 13% and the activation at 10 µM [2, 4] was 167%.
For O=C(Cn1nc(N2CCC3(CCC3)C2)ccc1=O)Nc1ccc2ocnc2c1 [Example 131], the activation at 10 µM [1, 3] was 7% and the activation at 10 µM [2, 4] was 227%.
C[C@@H]1CC=C(c2ccc(=O)n(CC(=O)Nc3ccc4ncnn4c3)n2)CC1 [Example 539, 2-{3-[(4S)-4-methylcyclohex-1-en-1-yl]-6-oxopyridazin-1(6H)-yl}-N-([1,2,4]triazolo[1,5-a]pyridin-6-yl)acetamide] gave an activation at 1 µM [1, 9] of 11% and an activation at 1 µM [2, 10] of 80%.
With COc1cc(N2CCC(C)(C)CC2)nn(CC(=O)N2CCc3c(N4CCOCC4)cccc32)c1=O [Example 224] the activation at 10 µM [1, 3] was 11% and the activation at 10 µM [2, 4] was 118%.
With CC1(C)CC=C(c2ccc(=O)n(CC(=O)Nc3ccn4ccnc4c3)n2)CC1 [Example 425] the “Nav1.5 current amplification rate (%)” value [1, 5] was 60% and the “Nav1.1 current amplification rate (%)” value [2, 6] was 283%.
With O=C(Cn1nc(C2=CCCCC2)ccc1=O)N1CCc2c(-c3ccnnc3)cccc21 [Example 517] the activation at 1 µM [1, 9] was 16% and the activation at 1 µM [2, 10] was 359%.
For CC1(C)CC=C(c2ccc(=O)n(CC(=O)N3CCN(c4cncc(F)c4)CC3)n2)CC1 [Example 444], the “Nav1.5 current amplification rate (%)” value [1, 5] was 10% and the “Nav1.1 current amplification rate (%)” value [2, 6] was 292%.
For CCN1CC(c2cccc3c2CCN3C(=O)Cn2nc(C3=CCC(C)CC3)ccc2=O)C1 (racemic) [Example 302], the “Nav1.5 current amplification rate (%)” value [1, 11] was 79% and the “Nav1.1 current amplification rate (%)” value [2, 12] was 104%.
CC1CC=C(c2ccc(=O)n(CC(=O)Nc3ccnc(N4CCOCC4)c3F)n2)CC1 (racemic) [Example 383] was tested, and the “Nav1.5 current amplification rate (%)” value [1, 7] was 51% and the “Nav1.1 current amplification rate (%)” value [2, 8] was 84%.
With Cc1cc(NC(=O)Cn2nc(C3=CCC(C)CC3)ccc2=O)cc2ncnn12 (racemic) [Example 352] the “Nav1.5 current amplification rate (%)” value [1, 7] was 34% and the “Nav1.1 current amplification rate (%)” value [2, 8] was 155%.
Cc1cc(NC(=O)Cn2nc(N3CCC4(CCCC4)C3)cc(C)c2=O)cc(C)n1 [Example 198] gave an activation at 10 µM [1, 3] of -9% and an activation at 10 µM [2, 4] of 36%.
With CC1CC=C(c2ccc(=O)n(CC(=O)N3CCc4c(C5=CCNC5)cccc43)n2)CC1 (racemic) [Example 265] the “Nav1.5 current amplification rate (%)” value [1, 11] was 19% and the “Nav1.1 current amplification rate (%)” value [2, 12] was 110%.
O=C(Cn1nc(C2=CCC(F)(F)CC2)ccc1=O)Nc1ccnc(C(F)(F)F)c1 [Example 114] showed an activation at 10 µM [1, 3] of 12% and an activation at 10 µM [2, 4] of 83%.
